Reference: the supplement of paper PMC10627819

Tests used:
S. aureus DSM 20231 [1] = assay: fitness (endpoint OD595 vs no drug) (fraction); higher = more growth
How it was run: (§1)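 Fitness compares growth at the stationary-phase transition with the robust mean of no-drug control wells, as a ratio of optical densities. The ratio is capped at 1. Wells of 384-well plates held 30 µl, or 55 µl for S. pneumoniae, inoculated at OD595 0.01. Readings at OD595 every 30 min for 14 h at 37 °C were corrected against the first reading.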

S. aureus Newman [2] = assay: as above
How it was run: as §1

S. pneumoniae D39V [3] = assay: as above
How it was run: as §1

B. subtilis 168 = assay: Bliss interaction score (quartile over a dose matrix) (fitness difference); higher = more antagonism (negative = synergy)
How it was run: (§2)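 Values were capped at 1 after dividing OD595 at stationary-phase entry by the plate's robust no-drug mean. This ratio is fitness, and single-drug fitness was inferred from the combination data. The Bliss score is observed minus product-expected fitness, given as quartiles over technical, biological and donor/recipient replicates.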

S. aureus DSM 20231 [4] = assay: as above
How it was run: as §2

S. aureus Newman [5] = assay: as above
How it was run: as §2

S. pneumoniae D39V [6] = assay: as above
How it was run: as §2
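For Bliss interaction score (quartile over a dose matrix) in this document: first quartile when negative (synergy) and third quartile when positive (antagonism).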

CO/N=C(\C(=O)N[C@@H]1C(=O)N2C(C(=O)[O-])=C(C[N+]3(C)CCCC3)CS[C@H]12)c1csc(N)n1 [Cefepime] + CN(N=O)C(=O)N[C@@H](C=O)[C@@H](O)[C@H](O)[C@H](O)CO [Streptozotocin]
fitness
Conditions | first compound 0.007 µg/mL | first compound 0.014 µg/mL | first compound 0.028 µg/mL | first compound 0.125 µg/mL | first compound 0.25 µg/mL | first compound 0.5 µg/mL
S. aureus DSM 20231 [1], partner 0.15 µg/mL | – | – | – | 0.789 | 0.705 | 0.721
S. aureus DSM 20231 [1], partner 0.3 µg/mL | – | – | – | 0.667 | 0.645 | 0.713
S. aureus DSM 20231 [1], partner 0.6 µg/mL | – | – | – | 0.589 | 0.588 | 0.61
S. aureus Newman [2], partner 0.15 µg/mL | – | – | – | 0.814 | 0.765 | 0.682
S. aureus Newman [2], partner 0.3 µg/mL | – | – | – | 0.717 | 0.641 | 0.66
S. aureus Newman [2], partner 0.6 µg/mL | – | – | – | 0.505 | 0.482 | 0.506
S. pneumoniae D39V [3], partner 1.2 µg/mL | 0.964 | 0.935 | 0.824 | – | – | –
S. pneumoniae D39V [3], partner 2.4 µg/mL | 0.987 | 0.993 | 0.923 | – | – | –
S. pneumoniae D39V [3], partner 4.8 µg/mL | 0.966 | 0.983 | 0.868 | – | – | –

fitness, S. pneumoniae D39V [3], one replicate
Conditions | first compound 0.0078 µg/mL | first compound 0.0155 µg/mL | first compound 0.031 µg/mL
partner 1.2 µg/mL | 0.984 | 0.953 | 0.186
partner 2.4 µg/mL | ≥ 1 | 0.937 | 0.289
partner 4.8 µg/mL | 0.956 | 0.895 | 0.0426

Conditions | Bliss interaction score
B. subtilis 168 | -0.0416
S. aureus DSM 20231 [4] | -0.0779
S. aureus Newman [5] | 0.0304
S. pneumoniae D39V [6] | -0.0319

CO/N=C(\C(=O)N[C@@H]1C(=O)N2C(C(=O)[O-])=C(C[N+]3(C)CCCC3)CS[C@H]12)c1csc(N)n1 [Cefepime] + CN[C@@H]1[C@H](O)[C@H](NC)[C@H]2O[C@@]3(O)C(=O)C[C@@H](C)O[C@H]3O[C@@H]2[C@H]1O [Spectinomycin]
fitness
Conditions | first compound 0.007 µg/mL | first compound 0.014 µg/mL | first compound 0.028 µg/mL | first compound 0.125 µg/mL | first compound 0.25 µg/mL | first compound 0.5 µg/mL
S. aureus DSM 20231 [1], partner 4 µg/mL | – | – | – | 0.755 | 0.729 | 0.851
S. aureus DSM 20231 [1], partner 8 µg/mL | – | – | – | 0.865 | 0.849 | 0.861
S. aureus DSM 20231 [1], partner 16 µg/mL | – | – | – | 0.806 | 0.764 | 0.778
S. aureus Newman [2], partner 4 µg/mL | – | – | – | 0.835 | 0.809 | 0.724
S. aureus Newman [2], partner 8 µg/mL | – | – | – | 0.864 | 0.805 | 0.742
S. aureus Newman [2], partner 16 µg/mL | – | – | – | 0.847 | 0.766 | 0.682
S. pneumoniae D39V [3], partner 4 µg/mL | 0.935 | 0.935 | 0.877 | – | – | –
S. pneumoniae D39V [3], partner 8 µg/mL | 0.943 | 0.974 | 0.873 | – | – | –
S. pneumoniae D39V [3], partner 16 µg/mL | 0.916 | 0.918 | 0.876 | – | – | –

fitness, one replicate
Conditions | first compound 0.0078 µg/mL | first compound 0.0155 µg/mL | first compound 0.031 µg/mL | first compound 0.125 µg/mL | first compound 0.25 µg/mL | first compound 0.5 µg/mL
S. aureus DSM 20231 [1], partner 32 µg/mL | – | – | – | 0.736 | 0.669 | 0.647
S. aureus DSM 20231 [1], partner 64 µg/mL | – | – | – | 0.0956 | 0.0736 | 0.0704
S. aureus Newman [2], partner 32 µg/mL | – | – | – | 0.418 | 0.372 | 0.182
S. aureus Newman [2], partner 64 µg/mL | – | – | – | 0.0932 | 0.0802 | 0.0762
S. pneumoniae D39V [3], partner 4 µg/mL | ≥ 1 | 0.988 | 0.577 | – | – | –
S. pneumoniae D39V [3], partner 8 µg/mL | 0.999 | ≥ 1 | 0.716 | – | – | –

Conditions | Bliss interaction score
B. subtilis 168 | -0.0538
S. aureus DSM 20231 [4] | -0.0966
S. aureus Newman [5] | -0.0659
S. pneumoniae D39V [6] | 0.147
